Data set [1] is described as follows: Stability in mouse hepatocytes. Format: in vitro ADME.
Data set [2] is described as follows: Stability in human hepatocytes. In kind it is in vitro ADME. The settings on record: for half-life at 5 µM: t1/2, Human Hepatocytes.
A short description of data set [3]: Chemical stability in aqueous solution (phosphate buffered saline, NMR).
Description: To measure chemical stability in aqueous solution, the half-life (t1/2), or time needed for the concentration to decrease by half, was determined for select compounds in phosphate buffered saline solution. Compounds were dissolved in a solution containing 10 mM phosphate buffer (pH 7.5) and 5% of D2O to a final concentration of −1 mM. All spectra were obtained at 37° C. on a Bruker Avance 600 NMR spectrometer equipped with an inverse broad-band probe with z-gradients. Data were obtained every 15 min for a total time period of 4 h or longer, according to the observed stability. ^31P NMR was performed at 242.55 MHz, with gated decoupling of the protons. An observation frequency range of 14619.9 Hz and 32 K complex data points were used for acquisition. A pulse angle of 90° and a 4-sec pulse cycle were utilized. Thirty-two accumulations were obtained before Fourier transformation of the free induction decay. ^1H NMR spectra were acquired using the 1DNOESY experiment with water presaturation for better solvent suppression. An observation frequency range of 12019.23 Hz, a 10-sec pulse cycle, and 32 K complex data points were used for acquisition. Sixty-four scans were added prior to Fourier transformation. Integral data were obtained using the TopSpin software.
Stability was determined based on analysis of disappearance of the compounds as a function of incubation time. Quantification of test compounds was measured as a peak area relative to an internal standard. The elimination constant, k, was calculated by plotting mean disappearance values on a semi-logarithmic scale and fitting with a best fit linear regression. The half-life (t1/2) expressed in hours was derived using Equation 1: t1/2=ln2/(−k). Equation 1:
The subject of data set [4] is PANK2 silenced human neuroblastoma IMR32 cells (PANK2−/−). In words: Coenzyme A assay in PANK2 silenced cells (LC-MS quantification of free CoA). Format: cell-based. The settings on record: compound added twice (24 h + 24 h), relative to 0.1% DMSO controls. An outline of the steps: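 Free intracellular CoA was measured by positive-mode LC-MS/MS of 20% TFA extracts, taking 2 μl per 10^6 cells as intracellular volume. Cells were IMR32 with stable lentiviral PANK2 knockdown, dosed twice 24 h apart (48 h total, 0.1% DMSO). Output is fold increase over vehicle.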

The nature of data set [5]: Permeability in porcine brain endothelial cell blood-brain barrier model. Format: in vitro ADME. The settings on record: pig (endothelial cells), co-cultured with rat astrocytes, pH 7.4, PBECs/As blood-brain barrier model, luminal to basal. From the text:
Compounds disclosed herein show the potential to reach mammalian brain by crossing the blood-brain barrier (BBB) from systemic circulation. […] The porcine brain endothelial cell permeability assay is an in vitro BBB model to be used for the prediction of central nervous system (CNS) drug permeability in vivo and for ranking or prioritization of compounds according to their permeability. This system can also be used for mechanistic studies and drug delivery strategies via receptor-mediated transport (transcytosis). The system is a two-dimensional co-culture, non-contact model of two types of primary cells: primary brain endothelial cells obtained from fresh porcine brains, and primary rat astrocytes, obtained from neonatal rats. This ensures barrier formation and functional expression of key transporters.
The endothelial cells were cultured on rat-tail collagen type I and human fibronectin coated Transwell polycarbonate inserts (surface area 0.7 cm^2; pore size 0.4 μm) and the inserts were placed in 24-well plates containing confluent rat astrocytes. This system allows for the formation of a differentiated BBB model suitable for compound permeability in 10 days.
On the day of the experiment, culture medium was removed and cells were pre-incubated for 30 min with HBSS containing 20 mM Hepes pH 7.4 and 0.1% BSA. Donor volume (apical) was 400 μl and receiver volume (basal) 900 μl. Compounds were diluted in assay medium (at the desired concentration) and added to the luminal side (to mimic blood to brain passage). Transport was measured usually after 60 min by detecting the amount of compound from the basal (brain side). The integrity of the cell layers was assessed by measuring the transendothelial electrical resistance (TEER) and by monitoring FITC-dextran (40 KDa) permeation. Inserts with TEER values […] were selected for permeability studies. As FITC-dextran cannot freely permeate lipophilic barriers, a high degree of FITC-dextran transport indicates poor integrity of the cell layer and wells with high FITC-dextran permeability were excluded. FITC-dextran was included as internal control in each insert used for permeability studies. Fluorescence was measured using a fluorimetric detector. Radioactivity was measured by scintillation counting. For LC-MS/MS analysis, aliquots (200 μl) from the basal compartment were diluted with an equal volume of 100% acetonitrile containing 0.1% formic acid, centrifuged to remove cell debris, and evaporated under N2. After reconstitution, samples were analyzed by LC-MS/MS. Mass balance was determined considering the amount of compound recovered in the donor and receiver chamber at the end of the assay relative to the amount added to the donor chamber at time 0.
Permeability was defined as the apparent permeability coefficient (Papp), which is a measure of the appearance rate of the compound in the receiver chamber, expressed in cm/s. Papp is calculated according the following equation: Papp[cm/sec]=Vd*ΔMr/A*Md*Δt, Equation 2: where
Vd=volume in the donor compartment in cm^3 or mL;
ΔMr=total amount of compound in the receiver compartment after t seconds;
Md=donor amount (added at time 0)
Δt=time measured in seconds
A=filter area in cm^2 (for 24 well plate, A=0.7 cm^2).
To correct for the contribution of filter and substrate, Papp was also determined for the cell-free system. Permeability of the endothelial cell layer was determined using the following equation: […], Equation 3: where
Ptotal=the P of the total system,
Pf=P for the cell-free filter, and
Pe=P for the endothelial cell layer alone. In this equation, the total resistance of the system towards passage of a substance is additively composed of two […] resistances: that of the cell monolayer and that of the filter.

A short description of data set [6]: Stability in mouse plasma. Format: in vitro ADME. The settings on record: mouse, plasma; for t1/2, Mouse Plasma, Diastereoisomer B: 3 µM. The method, boiled down:
(§1)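 Test compound at 3 μM (0.1% DMSO) was incubated in mouse or human plasma at 37 °C and sampled in duplicate at 0, 10, 20, 30, 40 and 60 min. Reactions were stopped with acetonitrile/formic acid containing internal standard. Remaining parent was measured by UPLC-MS/MS without a calibration curve.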

Data set [7] in a line: Stability in human plasma. In kind it is in vitro ADME. The settings on record: human, plasma, 37° C. The method, boiled down:
as §1

[8] abbreviates: t1/2, Mouse Hepatocytes, Diastereoisomer A.
Setting [9] is: t1/2, Mouse Hepatocytes, Diastereoisomer B.
[10] abbreviates: pH 7.5, t1/2 (h) Diastereoisomer A, 10 mM phosphate buffer pH 7.5, 37° C., Diastereoisomer A = upfield shift in the 31P NMR.
Setting [11] is: pH 7.5, t1/2 (h) Diastereoisomer B, 10 mM phosphate buffer pH 7.5, 37° C., Diastereoisomer B.
Setting [12] is: Diastereoisomer A, read-out: Papp Diastereoisomer A.
The mark [13] stands for this setting: Diastereoisomer A (upfield shift in 31P NMR), read-out: t1/2, Human Plasma, Diastereoisomer A (converted).
[14] abbreviates: Diastereoisomer B, read-out: t1/2, Human Plasma, Diastereoisomer B (converted).

Like-named read-outs stand apart in the source and are kept apart here.

With `COC(=O)CCNC(=O)[C@@H]1OP(=O)(OCCCOCc2ccccc2)OCC1(C)C` (stereo partly drawn) [compound 53, methyl 3-((4R)-2-(3-(benzyloxy)propoxy)-5,5-dimethyl-2-oxido-1,3,2-dioxaphosphinane-4-carboxamido)propanoate], the half-life at 5 µM was 16.8 min in data set [1] (setting [8]), less than 15 min in data set [1] (setting [9]), 34.2 min in data set [2] (Diastereoisomer A) and less than 15 min in data set [2] (Diastereoisomer B). In addition, the half-life at 1 mM in data set [3] (setting [10]) and in data set [3] (setting [11]) was more than 4800 min each time.

On to `COC(=O)CCNC(=O)[C@H](O)C(C)(C)COP1(=O)OCC(C)(C)[C@H](C(=O)NCCC(=O)OC)O1` (stereo partly drawn) [compound 59, methyl 3-((2R)-2-hydroxy-4-(((4R)-4-((3-methoxy-3-oxopropyl)carbamoyl)-5,5-dimethyl-2-oxido-1,3,2-dioxaphosphuian-2-yl)oxy)-3,3-dimethylbutanamido) propanoate], for which the “PANK2−/− CoA (Fold Increase): fold increase in Coenzyme A (CoA) levels relative to controls” value in data set [4] was determined as 1.52 Fold Increase. In addition, the half-life at 5 µM is 20.4 min in data set [1] (setting [8]), less than 15 min in data set [1] (setting [9]), 173 min in data set [2] (Diastereoisomer A) and 92.4 min in data set [2] (Diastereoisomer B). The half-life at 1 mM in data set [3] (setting [10]) is 4800 min; in data set [3] (setting [11]), 360 min.

`COC(=O)CCNC(=O)[C@@H]1O[P@](=O)(OCc2ccccc2)OCC1(C)C` [compound 54, methyl 3-((2R,4R)-2-(benzyloxy)-5,5-dimethyl-2-oxido-1,3,2-dioxaphosphinane-4-carboxamido)propanoate]: the half-life at 5 µM in data set [1] (setting [8]) and in data set [2] (Diastereoisomer A) was less than 15 min each time. Further, in data set [5] (setting [12]), the Papp A→B at 60 min is 18.1 ×10⁻⁶ cm/s.

In the case of `COC(=O)[C@H](C)NP1(=O)OCC(C)(C)[C@H](C(=O)NCCC(=O)OCCN2CCCC2)O1` (stereo partly drawn) [compound 19, methyl ((4R)-5,5-dimethyl-2-oxido-4-((3-oxo-3-(2-(pyrrolidin-1-yl)ethoxy)propyl)carbamoyl)-1,3,2-dioxaphosphinan-2-yl)-L-alaninate], the “PANK2−/− CoA (Fold Increase): fold increase in Coenzyme A (CoA) levels relative to controls” value in data set [4] turned out to be 1.73 Fold Increase. The half-life at 3 µM in data set [6] was less than 9.6 min; in data set [7] (setting [13]) it was 27 min; in data set [7] (setting [14]), more than 60 min. Further, the “t1/2, Mouse Plasma, Diastereoisomer B” value in data set [6] was less than 9.6 min. Besides, the half-life at 5 µM in data set [1] (setting [8]) is 22.2 min; in data set [1] (setting [9]), 18.6 min; in data set [2] (Diastereoisomer A), 75.6 min; in data set [2] (Diastereoisomer B), 69.6 min. The half-life at 1 mM in data set [3] (setting [10]) is 282 min; in data set [3] (setting [11]), 222 min.

For the molecule `COC(=O)CCNC(=O)[C@@H]1O[P@@](=O)(OCc2ccccc2)OCC1(C)C` [compound 56, methyl 3-((2S,4R)-2-(benzyloxy)-5,5-dimethyl-2-oxido-1,3,2-dioxaphosphinane-4-carboxamido)propanoate], the half-life at 5 µM in data set [1] (setting [8]) and in data set [2] (Diastereoisomer A) was less than 15 min each time. In data set [5] (setting [12]), the Papp A→B at 60 min stood at 18.7 ×10⁻⁶ cm/s. Besides, the half-life at 1 mM in data set [3] (setting [10]) was 276 min.

`COC(=O)CCNC(=O)[C@@H]1OP(=O)(NCCc2ccncc2)OCC1(C)C` (stereo partly drawn) [compound 111, methyl 3-((4R)-5,5-dimethyl-2-oxido-2-((2-(pyridin-4-yl)ethyl)amino)-1,3,2-dioxaphosphinane-4-carboxamido)propanoate]: the half-life at 5 µM in data set [1] (Diastereoisomer A (upfield shift in 31P NMR), 5 μM, 1 million cells/ml, 37° C., mouse hepatocytes, read-out: t1/2, Mouse Hepatocytes, Diastereoisomer A (converted)) was 28.8 min. For the same molecule, in data set [2] (Diastereoisomer A (upfield shift in 31P NMR), 5 μM, 1 million cells/ml, 37° C., human hepatocytes, read-out: t1/2, Human Hepatocytes, Diastereoisomer A (converted)), the half-life was 171 min. Besides, in data set [5] (setting [12]), the Papp A→B at 60 min worked out at 0.7 ×10⁻⁶ cm/s.

For the molecule `COC(=O)CCNC(=O)[C@@H]1O[P@@](=O)(OCCC(C)C)OCC1(C)C` [compound 50, methyl 3-((2S,4R)-2-(isopentyloxy)-5,5-dimethyl-2-oxido-1,3,2-dioxaphosphinane-4-carboxamido)propanoate], the half-life at 1 mM in data set [3] (setting [10]) is more than 4800 min.

For the molecule `CCc1cc(C(=O)OCO[P@@]2(=O)OCC(C)(C)[C@H](C(=O)NCCC(=O)OC)O2)n(C)n1` (single isomer, unassigned) [Compound No. 2-127], in data set [4], the “PANK2−/− CoA (Fold Increase): fold increase in Coenzyme A (CoA) levels relative to controls” value is 14.41 Fold Increase. Moreover, the half-life at 5 µM in data set [1] (setting [8]) is less than 15 min; in data set [2] (Diastereoisomer A), 17.4 min. For the same molecule, the Papp A→B at 60 min in data set [5] (setting [12]) was 11.8 ×10⁻⁶ cm/s.

The molecule `COC(=O)CCNC(=O)[C@@H]1O[P@@](OCCc2ccccc2)OCC1(C)C` [compound 58, methyl 3-((2S,4R)-5,5-dimethyl-2-phenethoxy-1,3,2-dioxaphosphinane-4-carboxamido)propanoate] yielded a half-life at 1 mM in data set [3] (pH 7.5) of more than 4800 min.

With `COC(=O)CCNC(=O)[C@@H]1OP(=O)(O)OCC1(C)C` [compound 55, methyl 3-((4R)-2-hydroxy-5,5-dimethyl-2-oxido-1,3,2-dioxaphosphinane-4-carboxamido)propanoate], the “PANK2−/− CoA (Fold Increase): fold increase in Coenzyme A (CoA) levels relative to controls” value in data set [4] came to 1.92 Fold Increase. In data set [3] (pH 7.5, t1/2 (h), pH 7.5, 37° C., compound not chiral at phosphorous, one value spanning both columns), this molecule gave a half-life at 1 mM of more than 3600 min.

`CCc1cc(C(=O)OCO[P@]2(=O)OCC(C)(C)[C@H](C(=O)NCCC(=O)OC)O2)n(C)n1` (single isomer, unassigned) [Compound No. 2-129]: in data set [4], the “PANK2−/− CoA (Fold Increase): fold increase in Coenzyme A (CoA) levels relative to controls” value came to 88.66 Fold Increase. The half-life at 5 µM in data set [1] (setting [9]) and in data set [2] (Diastereoisomer B) was less than 15 min each time. In addition, the Papp A→B at 60 min in data set [5] (Diastereoisomer B, read-out: Papp Diastereoisomer B) came out at 11.5 ×10⁻⁶ cm/s.

Regarding `COC(=O)CCNC(=O)[C@@H]1OP(=O)(OCCCN2CCOCC2)OCC1(C)C` (stereo partly drawn) [compound 52, methyl 3-((4R)-5,5-dimethyl-2-(3-morpholinopropoxy)-2-oxido-1,3,2-dioxaphosphinane-4-carboxamido)propanoate], in data set [4], the “PANK2−/− CoA (Fold Increase): fold increase in Coenzyme A (CoA) levels relative to controls” value worked out at 1.58 Fold Increase. Also, the half-life at 3 µM is less than 9.6 min in data set [6], more than 60 min in data set [7] (setting [13]) and more than 60 min in data set [7] (setting [14]). In addition, the “t1/2, Mouse Plasma, Diastereoisomer B” value in data set [6] is less than 9.6 min. In addition, the half-life at 1 mM in data set [3] (setting [10]) was 1410 min; in data set [3] (setting [11]), 306 min.

The values above are taken from US10364263B2, “Cyclic phosphates and cyclic phosphoramidates for the treatment of neurologic disorders” (Retrophin, Inc., priority 2015, dated 2019).
